Test results published in patent publication US20140363526A1, “SYNERGISTIC FORMULATION OF PLANT EXTRACTS FOR HEPATIC AND ADRENAL DISORDERS” (Bioved Pharmaceuticals, Inc., priority 2013, published 2014).

System: dexamethasone induced triglyceride synthesis in human subcutaneous pre-adipocytes
Assay: Inhibition of long term dexamethasone induced triglyceride synthesis
Format: cell-based
Details: single extracts 1 μg/ml, combined formulation 10 μg/ml, vs DMSO control
Protocol: The study was conducted at a reputed US Contract Research Lab which has access to pooled human subcutaneous pre-adipocytes (female, average age 54.2, average BMI 27.9) from twelve different donors. These were cultured in 96-well plates in DMEM/Ham's F-12 (1:1, v/v) with 10% fetal bovine serum and differentiated according to a standard protocol. The next day, the pre-adipocyte medium was removed and replaced with differentiation medium; namely insulin, dexamethasone and IBMX (3-isobutyl-1-methylxanthine, a competitive nonselective phosphodiesterase inhibitor and a nonselective adenosine receptor antagonist. The media containing the formulations were prepared by different methods (individually and combined). After seven days, 90 μl of differentiation medium was removed and replaced with 120 μl of adipocyte medium (containing dexamethasone and insulin in DMEM). After seven more days, cells were assayed for cytotoxicity and cellular triglyceride content.
Cellular triglycerides were measured by a two-step procedure. […] After 15 minutes, the optical density of each well of the new plate was measured at 540 nm. The absorbance values of the unknown samples were converted to glycerol concentrations by correlation to the glycerol concentration standards using the generated linear regression equation.

TNF-a
inhibition of TG synthesis: significantly reduced TG synthesis
